Source: paper doi:10.1101/365908v1 (biorxiv, 2018)

Target: T1, human GSDMD (full-length) (Homo sapiens, UniProt P57764)
T1 sequence (P57764 1-484): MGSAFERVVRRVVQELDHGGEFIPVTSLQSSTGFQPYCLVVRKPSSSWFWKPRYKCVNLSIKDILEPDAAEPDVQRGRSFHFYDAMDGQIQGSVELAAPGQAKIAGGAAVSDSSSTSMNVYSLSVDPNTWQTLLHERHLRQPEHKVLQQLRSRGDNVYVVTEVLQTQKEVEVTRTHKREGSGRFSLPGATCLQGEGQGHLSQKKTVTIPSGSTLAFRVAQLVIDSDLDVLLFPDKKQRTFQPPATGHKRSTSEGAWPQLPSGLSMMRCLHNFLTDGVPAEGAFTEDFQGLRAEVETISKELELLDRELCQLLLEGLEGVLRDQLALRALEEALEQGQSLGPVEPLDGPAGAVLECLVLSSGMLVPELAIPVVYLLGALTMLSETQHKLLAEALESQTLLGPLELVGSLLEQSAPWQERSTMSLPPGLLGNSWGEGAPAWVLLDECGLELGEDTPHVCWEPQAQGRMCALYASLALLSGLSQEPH
Experiment: Tb3+/DPA liposome leakage
Assay type: biochemical
Conditions: covalent (Cys191); 1 h preincubation; cleavage by 0.15 µM caspase-11; no Cu(II)

IC50: 300 ± 10 nM
Structure (SMILES): CCN(CC)C(=S)SSC(=S)N(CC)CC [C-23, Tetraethylthiuram disulfide]
